How the values were obtained:
[1] = test system: patients with postmenopausal osteoporosis; assay: 12 month dose-ranging trial of iv zoledronic acid: percent change from baseline in bone mineral density (DEXA) versus placebo; type: in vivo, human; conditions: for Difference versus placebo for percent change from baseline in bone mineral density of the lumbar spine; postero anterior (L1-L4): at 12 months, ITT population
Text: “A Multinational, Randomized, Double-Blind, Placebo-Controlled, Parallel-Group, Dose-Ranging, Safety and Efficacy Trial With Intravenous Bolus Injections of Zoledronate In the Treatment of Postmenopausal Osteoporosis”
(§1) This was a dose and dose regimen-finding 12 month trial of iv zoledronic acid in patients with postmenopausal osteoporosis. Three hundred and fifty one patients were randomized to six study arms. Patients who had recent exposure to bone active drugs, e.g. bisphosphonates, estrogen, calcitonin, raloxifene, or a history of metabolic bone diseases were excluded. All patients were evaluated at baseline and in 3-monthly visits. Zoledronic acid or placebo was administered as a bolus iv injection into a peripheral vein over 5 minutes at every visit.
Efficacy was ascertained by measurement of percent change from baseline in bone mineral density (BMD) measured by dual energy X-ray absorptiometry (DEXA) as compared to placebo, at 6, 9, and 12 months.
(§2) • Placebo • 0.25 mg zoledronic acid every 3 months • 0.5 mg zoledronic acid every 3 months • 1.0 mg zoledronic acid every 3 months • 2.0 mg zoledronic acid every 6 months • 4.0 mg zoledronic acid every 12 months

[2] = test system: patients with postmenopausal osteoporosis; assay: Suppression of biochemical markers of bone turnover in the same trial; type: in vivo, human; conditions: throughout the 6 and 12 month dosing intervals
Method: as §1
Additionally, the degree and duration of suppression of biochemical markers of bone turnover—parathyroid hormone (PTH), bone specific alkaline phosphatase (BSAP), serum C-telopeptide (CTX), serum osteocalcin, urine N-telopeptide (NTX)/creatinine ratio, urine deoxypyridinoline (d-pyd)/creatinine ratio, urine pyridinoline (pyd)/creatinine ratio—was obtained every 3 months and measured in a central laboratory.
as §2

## O=P(O)(O)C(O)(Cn1ccnc1)P(=O)(O)O [zoledronate, 2-(imidazol-1yl)-1-hydroxyethane-1,1-diphosphonic acid]
[1]; 1 × 4.0 mg (4.0 mg iv every 12 months)
  Difference versus placebo for percent change from baseline in bone mineral density of the lumbar spine; postero anterior (L1-L4): 4.6%
[1]; 2 × 2.0 mg (2.0 mg iv every 6 months)
  Difference versus placebo for percent change from baseline in bone mineral density of the lumbar spine; postero anterior (L1-L4): 4.2%
[1]; 4 × 0.25 mg (0.25 mg iv every 3 months)
  Difference versus placebo for percent change from baseline in bone mineral density of the lumbar spine; postero anterior (L1-L4): 5.1%
[1]; 4 × 0.5 mg (0.5 mg iv every 3 months)
  Difference versus placebo for percent change from baseline in bone mineral density of the lumbar spine; postero anterior (L1-L4): 4.9%
[1]; 4 × 1.0 mg (1.0 mg iv every 3 months)
  Difference versus placebo for percent change from baseline in bone mineral density of the lumbar spine; postero anterior (L1-L4): 4.5%
[1]; all treatment arms, 12 month results
  percent change from baseline in BMD compared with placebo: significantly (p<0.001) greater than placebo
[1]; at the spine, hip, distal radius, and total body
  Bone mineral density compared to placebo: increased compared to placebo
[1]; dose administration as infrequent as every 6 or 12 months
  bone mass increase (BMD data): statistically significant and medically relevant bone mass increase
[2]
  Suppression of biochemical markers of bone formation and bone resorption: suppression of bone turnover to the pre-menopausal level
